Experimental data taken from ChEMBL document CHEMBL4038315, “Identification of Peptidic Antagonists of Vascular Endothelial Growth Factor Receptor 1 by Scanning the Binding Epitopes of Its Ligands” (J Med Chem, 2017).
Activity calls are given as the source filed them. The calls are words filed in the database; no cut-off is given here. Positions of bridges follow the written chain, without caps; N, C: chain ends. Residues, ends and D or L forms follow the SMILES beside them.

System: HUVEC
Details: Homo sapiens, 50 uM
Description: Antiangiogenic activity in HUVEC assessed as inhibition of VEGF-A-induced tube formation at 50 uM preincubated for 15 mins prior to VEGF-A addition measured after 4 hrs by matrigel assay

Structure (SMILES) | inhibition
CSCC[C@@H]1NC(=O)[C@H](CC(C)C)NC(=O)[C@H](CCC(=O)O)NC(=O)[C@H](C(C)C)NC(=O)[C@H]([C@@H](C)O)NC(=O)[C@@H](NC(C)=O)CSSC[C@@H](C(N)=O)NC(=O)[C@@H]2CCCN2C(=O)[C@H](C(C)C)NC(=O)[C@H](CC(C)C)NC(=O)[C@H](CCC(N)=O)NC(=O)[C@H](CCCCN)NC(=O)[C@H](C)NC(=O)[C@H](C(C)C)NC(=O)[C@H]([C@@H](C)O)NC(=O)CNC1=O (Ac-CTVELMGTVAKQLVPC-NH2; disulfide 1-16) | Active
CC[C@H](C)[C@@H]1NC(=O)[C@H](Cc2ccc(O)cc2)NC(=O)[C@H](CCC(=O)O)NC(=O)[C@H]([C@@H](C)CC)NC(=O)[C@H](CCC(=O)O)NC(=O)[C@H](CC(=O)O)NC(=O)[C@@H]2CCCN2C(=O)[C@H](Cc2ccc(O)cc2)NC(=O)[C@H](CCC(=O)O)NC(=O)[C@H](CCC(N)=O)NC(=O)[C@H](Cc2ccccc2)NC(=O)[C@@H](N)CSSC[C@@H](C(=O)N[C@@H](CCCCN)C(N)=O)NC1=O (H-CFQEYPDEIEYICK-NH2; disulfide 1-13) | Active
CC[C@H](C)[C@@H]1NC(=O)[C@H](Cc2ccc(O)cc2)NC(=O)[C@H](CCC(=O)O)NC(=O)[C@H]([C@@H](C)CC)NC(=O)[C@H](CCC(=O)O)NC(=O)[C@H](CC(=O)O)NC(=O)[C@@H]2CCCN2C(=O)[C@H](Cc2ccc(O)cc2)NC(=O)[C@H](CCC(=O)O)NC(=O)[C@H](CCC(N)=O)NC(=O)[C@@H](N)CSSC[C@@H](C(=O)N[C@@H](CCCCN)C(N)=O)NC1=O (H-CQEYPDEIEYICK-NH2; disulfide 1-12) | Active
